# Results reported in article PMC3790782, “Optimization and Pharmacological Validation of a Leukocyte Migration Assay in Zebrafish Larvae for the Rapid In Vivo Bioactivity Analysis of Anti-Inflammatory Secondary Metabolites” (PLoS ONE, 2013).
# Structures can show the parent of a compound that is named as a salt. Marks after values point to notes of the source that are not given here.
# Columns and labels:
# [1] = tested on: leukocyte migration in 4 dpf zebrafish larvae; assay: LPS-enhanced leukocyte migration assay (tail transection, MPO staining, RLM); type: in vivo, zebrafish (Danio rerio); design: Anti-inflammatory activity at MTC: concentration or dose not given beside the values; conditions: for Relative leukocyte migration (RLM) / response vs control in vivo at 10 µM / response vs control in vivo at 100 µM / Leukocyte migration (RLM) / response vs control in vivo at 1 µM / response vs control in vivo at 30 µM / response vs control in vivo at 300 µM / response vs control in vivo at 500 µM: tail cut + 10 µg/ml LPS, relative to 1% DMSO control; for response vs control in vivo at 10 µM / response vs control in vivo at 100 µM / response vs control in vivo at 1 µM / response vs control in vivo at 30 µM / response vs control in vivo at 300 µM / response vs control in vivo at 500 µM: Danio rerio, Leukocyte, 8 h; for Anti-inflammatory activity at MTC: (1−RLM)x100; for RLM (zebrafish-based assay): at the MTC given in Table 2
# Description: The lipopolysaccharide- (LPS−)enhanced leukocyte migration assay was carried out by triplicate for each sample in 4 dpf zebrafish larvae. The total incubation period of the assay was eight hours. Initially, a pre-incubation step (i.e. prior to tail transection) of one hour at 28°C (±0.5°C) was carried out in 24-well culture plates. Ten larvae per well were incubated in 1 ml of testing mix, consisting of a specific concentration of each sample and the amount of 0.3 X Danieau’s medium necessary to complete 1 ml. Immediately after pre-incubation, complete tail transection in each larva was performed. Zebrafish larvae were first anesthetized by immersion in 0.3 X Danieau’s medium containing 70 µg/ml tricaine (ethyl 3-aminobenzoate, Sigma-Aldrich) and then tail transection near the tip was performed with a sterile scalpel under light microscopy (Carl Zeiss Stemi 2000C). Larvae were then placed in fresh 0.3 X Danieau’s medium without anesthetic for a few minutes until the final incubation period. For the last step, a new testing mix was prepared including 10 µg/ml lipopolysaccharides from Salmonella typhosa ATCC 10749 (LPS, Sigma-Aldrich Chemical) to enhance leukocyte migration to the injured zone. The final incubation step (i.e. subsequent to tail transection) of the injured larvae in contact with the pro-inflammatory agent and with the specific concentration of each SAID, NSAID, non-AID, NP, and PE at 28°C (±0.5°C) was done for 7 h. Within this period, sporadic evaluations of the larvae were done to examine their viability during the time of the assay. Larvae that completed the incubation time were fixed overnight in 4% formaldehyde (Sigma-Aldrich) at 4°C. Controls containing only the vehicle (1% DMSO) were processed in parallel.
# Fixed larvae were gently washed twice with 1 X PBST (PBS-1X phosphate buffered saline, Gibco +0.1% Tween 20) for 5–10 min and then incubated at room temperature in 1 ml of freshly prepared Leucognost® Pox (Merck) staining solution, made according the directions of the provider. Observation of stained black-brown cells (leukocytes) in the larvae was possible within 15 min of incubation. Evaluation of the migrating leukocytes, particularly surrounding the injured region, in each larva was done under light microscopy (Carl Zeiss Stemi 2000C) and scoring was done using a migration scale established to semi-quantify the amount of migrating leukocytes on one side of each larva.
# The average of the value achieved for each of the ten larvae tested in triplicate for one sample is expressed as relative leukocyte migration (RLM) according to the formula: RLM = leukocyte migration of the larva/average leukocyte migration of the negative control.
# To determine the extent of leukocyte migration generated after exposing 4 dpf zebrafish larvae to mechanical and biological stimuli – namely tail transection and LPS exposure – we used a commercially available whole-mount cytochemical staining method (Leucognost® Pox, Merck) to detect MPO activity in situ. To minimize the number of handling steps post-staining, this method was chosen over the alternative myeloperoxidase stain Sudan Black B [26], [27], which also stains phospholipids, neural fats and sterols. In our experiments, we visualized migrating leukocytes in 4 dpf larvae at 8 h post-injury. Microscopic evaluations of MPO-stained larvae allowed us to score the degree of leukocyte migration at the trauma site according to a comparative scale that we established particularly for this purpose (Figure 2). Myeloperoxidase-positive cells, appearing as black-brown dots, were counted in a segment at the edge of the tail on one side of every larva (Figure 2). The number of leukocytes was then graded according to the comparative scale and subsequently converted into a relative value expressed as the relative leukocyte migration (RLM) activity for the total number or larvae for one sample.
# zebrafish larvae = conditions: 4 dpf zebrafish larvae, 8 h post-incubation; not more than 2 of 10 larvae with signs of toxicity
# Description: For the toxicological analysis, ten 4 dpf zebrafish larvae were used per well in 24-well culture plates. Incubation of each set of larvae at 28°C (±0.5) was done with SAIDs, NSAIDs and non-AIDs at concentrations ranging from 0.1 µM to 500 µM, with NPs at concentrations ranging from 1 µM to 500 µM, and with PEs at concentrations ranging from 1 ug/ml to 1 mg/ml. Controls containing only vehicle (1% DMSO) and untreated larvae were processed in parallel. Examination of each set of larvae was done under light microscopy (Carl Zeiss Stemi 2000C) each hour during a period of 8 h, and a final evaluation at 24 h post-incubation. At 8 h post-incubation, signs of toxicity, e.g. pericardial oedema, cardiovascular defects (arrhythmia or decreased circulation), balance defects (loss of normal posture), locomotor defects (decreased touch response), and ultimately death were scored for every drug, NP, and PE to further establish their maximum tolerated concentration (MTC). […] In this context, only non-toxic concentrations (below the MTC) were considered for further leukocyte migration analysis. All the toxicological assays were performed in duplicate using a different batch of zebrafish larvae for each set of experiments.
# Toxicological assessment of all the samples analyzed in our study was done prior to the evaluation of their anti-inflammatory properties. The maximum tolerated concentrations (MTCs) were determined at 8 h post-treatment according to toxicological parameters including pericardial oedema, cardiovascular defects (arrhythmia or decreased circulation), balance defects (loss of normal posture), locomotor defects (decreased touch response), and death. […] Vehicle-treated (1% DMSO) and untreated larvae were processed in parallel to minimize experimental variability in this toxicological evaluation.
# PGE2, rat macrophages = conditions: cited from earlier work
# TNF-α, iNOS, macrophages = tested on: TNF-α, iNOS, macrophages; design: method as in PMID 19378317, PMID 15668926; conditions: cited from earlier work
# TNF-α, RAW 264.7 = conditions: cited from earlier work
# [2] = tested on: COX, rat peritoneal leukocytes; design: method as in PMID 19378317, PMID 16220571, PMID 21443976; conditions: cited from earlier work
# IL-4, RBL-2H3 = tested on: IL-4, RBL-2H3; design: method as in PMID 19378317, PMID 17982104, PMID 21443976; conditions: cited from earlier work
# IL-1β, human monocytes = tested on: IL-1β, human monocytes; design: method as in PMID 19378317, PMID 17982104, PMID 21443976; conditions: cited from earlier work
# TNF-α, RBL-2H3 = tested on: TNF-α, RBL-2H3; design: method as in PMID 19378317, PMID 17982104, PMID 21443976; conditions: cited from earlier work
# [3] = tested on: NO, PGE2, COX-2, RAW 264.7; design: method as in PMID 21771629, PMID 21870032; conditions: cited from earlier work
smiles,measurement,setting,value
O=C(O)Cc1ccccc1Nc1c(Cl)cccc1Cl [diclofenac],Relative leukocyte migration (RLM),[1]; 0.1 µM,0.69
same,response vs control in vivo at 10 µM,[1],13%
same,Maximum tolerated concentration (MTC),zebrafish larvae,10 µM
CN1C(C(=O)Nc2ccccn2)=C(O)c2ccccc2S1(=O)=O [piroxicam],Relative leukocyte migration (RLM),[1]; 0.1 µM,0.85
same,response vs control in vivo at 100 µM,[1],3%
same,Maximum tolerated concentration (MTC),zebrafish larvae,100 µM
Nc1nc(N)nc(N)n1 [melamine],Relative leukocyte migration (RLM),[1]; 200 µM,0.85
same,Maximum tolerated concentration (MTC),zebrafish larvae,200 µM
"O=c1c(O)c(-c2ccc(O)c(O)c2)oc2cc(O)cc(O)c12 [Quercetin, quercetin]",IC50,"PGE2, rat macrophages",13.9 µM
same,IC50,"TNF-α, iNOS, macrophages",50 µM
same,Leukocyte migration (RLM),[1]; 500 µM,0.31 ^*
same,response vs control in vivo at 1 µM,[1]; 1 µM,65%
same,response vs control in vivo at 10 µM,[1],55%
same,response vs control in vivo at 30 µM,[1]; 30 µM,35%
same,response vs control in vivo at 100 µM,[1],42%
same,response vs control in vivo at 300 µM,[1]; 300 µM,40%
same,response vs control in vivo at 500 µM,[1]; 500 µM,31%
same,Anti-inflammatory activity at MTC,[1],69%
same,Anti-inflammatory activity at MTC,[1]; listed as quercetin,69%
same,RLM (zebrafish-based assay),[1],0.31
same,Maximum tolerated concentration (MTC),zebrafish larvae,500 µM
same,IC50,"TNF-α, RAW 264.7",1 µM
"O=c1cc(-c2ccc(O)c(O)c2)oc2cc(O)cc(O)c12 [Luteolin, luteolin]",response vs control in vivo at 1 µM,[1]; 1 µM,63%
same,response vs control in vivo at 10 µM,[1],61%
same,response vs control in vivo at 30 µM,[1]; 30 µM,55%
same,response vs control in vivo at 100 µM,[1],48%
same,response vs control in vivo at 300 µM,[1]; 300 µM,44%
same,response vs control in vivo at 500 µM,[1]; 500 µM,41%
same,Anti-inflammatory activity at MTC,[1],59%
same,RLM (zebrafish-based assay),[1],0.41
same,Maximum tolerated concentration (MTC),zebrafish larvae,500 µM
same,IC50,"TNF-α, RAW 264.7",< 1 µM
same,IC50,[2],100 µg/mL
"C[C@]1(OC(=O)/C=C/c2ccccc2)C[C@@H](O)[C@]2(O)C=CO[C@@H](O[C@@H]3O[C@H](CO)[C@@H](O)[C@H](O)[C@H]3O)[C@@H]21 [Harpagoside, harpagoside]",Leukocyte migration (RLM),[1]; 300 µM,0.12 ^*
same,response vs control in vivo at 1 µM,[1]; 1 µM,48%
same,response vs control in vivo at 10 µM,[1],29%
same,response vs control in vivo at 30 µM,[1]; 30 µM,30%
same,response vs control in vivo at 100 µM,[1],15%
same,response vs control in vivo at 300 µM,[1]; 300 µM,12%
same,Maximum tolerated concentration (MTC),zebrafish larvae,300 µM
"CN(C)CCC=C1c2ccccc2COc2ccccc21 [doxepin, doxepin hydrochloride]",response vs control in vivo at 30 µM,[1]; 30 µM,71%
"O=c1cc(-c2ccc(O)cc2)oc2cc(O)cc(O)c12 [Apigenin, apigenin]",Leukocyte migration (RLM),[1]; 500 µM,0.35 ^***
same,response vs control in vivo at 1 µM,[1]; 1 µM,74%
same,response vs control in vivo at 10 µM,[1],53%
same,response vs control in vivo at 30 µM,[1]; 30 µM,54%
same,response vs control in vivo at 100 µM,[1],37%
same,response vs control in vivo at 300 µM,[1]; 300 µM,37%
same,response vs control in vivo at 500 µM,[1]; 500 µM,35%
same,Anti-inflammatory activity at MTC,[1],65%
same,Anti-inflammatory activity at MTC,[1]; listed as apigenin,65%
same,RLM (zebrafish-based assay),[1],0.35
same,Maximum tolerated concentration (MTC),zebrafish larvae,500 µM
same,IC50,"IL-4, RBL-2H3",3.6 µM
same,IC50,"IL-1β, human monocytes",10 µM
same,IC50,"TNF-α, RBL-2H3",5.3 µM
"O=C1C[C@@H](c2ccc(O)cc2)Oc2cc(O)cc(O)c21 [Naringenin, naringenin]",Leukocyte migration (RLM),[1]; 30 µM,0.37 ^**
same,response vs control in vivo at 1 µM,[1]; 1 µM,67%
same,response vs control in vivo at 10 µM,[1],42%
same,response vs control in vivo at 30 µM,[1]; 30 µM,37%
same,Anti-inflammatory activity at MTC,[1],63%
same,RLM (zebrafish-based assay),[1],0.37
same,Maximum tolerated concentration (MTC),zebrafish larvae,30 µM
"NC12CC3CC(CC(C3)C1)C2 [amantadine, amantadine hydrochloride]",Relative leukocyte migration (RLM),[1]; 200 µM,0.82
same,Maximum tolerated concentration (MTC),zebrafish larvae,200 µM
COc1ccc2c(c1)c(CC(=O)O)c(C)n2C(=O)c1ccc(Cl)cc1 [indomethacin],Relative leukocyte migration (RLM),[1]; 0.1 µM,0.72
same,Relative leukocyte migration (RLM),[1]; 200 µM,0.09
same,Maximum tolerated concentration (MTC),zebrafish larvae,200 µM
CC(C)=CCC[C@](C)(O)[C@@H]1CC=C(C)CC1 [(−)-α-bisabolol],Leukocyte migration (RLM),[1]; 1 µM,0.53 ^*
same,Leukocyte migration (RLM),[1]; 30 µM,0.48
same,Anti-inflammatory activity at MTC,[1],52%
same,RLM (zebrafish-based assay),[1],0.48
same,IC50,[3],100 µM
same,Maximum tolerated concentration (MTC),zebrafish larvae,30 µM
C[C@@H]1C[C@H]2[C@@H]3CCC4=CC(=O)C=C[C@]4(C)[C@@]3(F)[C@@H](O)C[C@]2(C)[C@@]1(O)C(=O)CO [dexamethasone],Relative leukocyte migration (RLM),[1]; 0.1 µM,0.81
same,Relative leukocyte migration (RLM),[1]; 200 µM,0.06
C[C@]12C=CC(=O)C=C1CC[C@@H]1[C@@H]2[C@@H](O)C[C@@]2(C)[C@H]1CC[C@]2(O)C(=O)CO [prednisolone],Relative leukocyte migration (RLM),[1]; 0.1 µM,0.66
same,Relative leukocyte migration (RLM),[1]; 200 µM,0.07
